The results in this text go back to patent publication US20260365696A1, “INHIBITORS OF PTP1B / NCK1 INTERACTION AND METHODS OF MAKING AND USING SAME” (Radella Pharmaceuticals LLC, priority 2023, published 2026).

One data set deals with db/db mice. Put plainly: db/db genetic mouse model of diabetes and obesity. Type of data set: in vivo. An excerpt:
Animals: All animals were housed and tested following European (Directive on the Protection of Animals used for Scientific Purposes, 2010/63/EU) and UK Home Office regulations. Experiments were approved by the University Ethics Board and carried out in accordance with the Animal (Scientific Procedures) Act 1986 and following ARRIVE guidelines. Db/db male mice (~4 weeks old) were purchased from Jackson, USA. All mice received standard mouse chow diet and had ad libitum access to food and water and were kept in a 12 h light/dark cycle.
Treatments: Mice were assigned and counterbalanced according to their body weights in to the following groups: control PBS (n=10); MD18 at 15 mg/kg (n=7), 30 mg/kg (n=8), or 45 mg/kg (n=7); or MD20 at 15 mg/kg (n=9), 30 mg/kg (n=10) or 45 mg/kg (n=7). MD18 and MD20 were administered once daily via subcutaneous (SC) injection for 41 days, whereas control mice received a daily SC injection of vehicle (PBS). MD18 and MD20 were kept in −20 °C and dissolved in sterile phosphate buffered saline (PBS).
Body weights and body mass composition: Body weights were recorded twice weekly during the study, and fat mass and lean mass composition was analysed using an EchoMRI scanner (EchoMedical Systems, Houston, TX, U.S.A.).
Metabolic measurements: All animals were five-hour fasted before obtaining basal glucose measurements and GTT, ITT, and corresponding treatments were administered 1 hour before glucose measurements. Tail blood glucose was measured using AlphaTRAK 2 glucose strips and glucometer (Abbot, UK), or blood was collected and glucose assay (AB65333, Abcam) was performed where readings were too high to be recorded via glucometer. Human Actrapid Insulin (NovaNordisk) at 1 IU/kg dose was administered during ITT.
Serum and liver assays: Trunk-derived blood was collected from 5 h-fasted mice into serum separator microtubes and kept at −80 °C. Serum was used for insulin (#EZRMI-13K, Merck) and leptin (#90030, Crystal Chem) analyses.
Statistical analyses: Data were reported as means±SEM and analysed using one- or two-way ANOVA with Bonferroni post hoc tests, as appropriate. GraphPad Prism (V8, GraphPad Software, Inc., San Diego, California, USA) was used for statistical analyses. P-values <0.05 were considered significant.

The next data set concerns LDLR−/− mice. The data set is described as follows: LDLR−/− mouse model of atherosclerosis. Type of data set: in vivo. As to conditions: 30 mg/kg IP daily. The text has this: Animals: All animals were housed and tested following European (Directive on the Protection of Animals used for Scientific Purposes, 2010/63/EU) and UK Home Office regulations. Experiments were approved by the University Ethics Board and carried out in accordance with the Animal (Scientific Procedures) Act 1986 and following ARRIVE guidelines. LDLR−/− male mice (~6-7 weeks old) were purchased from Jackson, US. All mice received a high fat/high cholesterol diet (42% fat plus 0.2% cholesterol, #TD.88137, Envigo, US), to induce atherosclerosis phenotype associated with obesity and type 2 diabetes. All mice had ad libitum access to food and water and were kept in a 12 h light/dark cycle.
Treatments: After 8 weeks of high fat/high cholesterol diet feeding, mice were randomized in to control (n=10) or MD20 30 mg/kg (n=9) groups. MD20 compound (30 mg/kg) was administered once daily via intraperitoneal (IP) injection for 7 weeks, whereas control mice received a daily IP injection of vehicle (PBS). MD20 was kept at −20 °C and dissolved in sterile phosphate buffered saline (PBS) freshly every day before the injection. Two mice died during the study and final numbers per group were: control (n=8) and MD20 30 mg/kg (n=9).
Bodyweights and body mass composition: Body weights were recorded during the study, and fat and lean mass composition was analyzed using an EchoMRI scanner (EchoMedical Systems, Houston, TX, U.S.A.).
Metabolic measurements: All animals were 5 h-fasted before metabolic tests. Tail blood glucose was measured using AlphaTRAK 2 glucose strips and glucometer (Abbot, UK).
Glucose and insulin tolerance tests (GTT, ITT) were performed by IP injection of 2 mg/g of glucose (GTT) or 0.6 mU/g insulin (ITT), and glucose levels were measured at 15, 30, 60 and 90 min post-injection.
Serum and liver assays: Trunk-derived blood was collected from 5 h-fasted mice into serum separator microtubes and kept at −80 °C. Serum was used for insulin (#EZRMI-13K, Merck), leptin (#90030, Crystal Chem), free fatty acids (FFA; #mak044, Sigma-Aldrich), cholesterol (#MAK043, Sigma Aldrich), and alanine and aspartate aminotransferase (ALT and AST; ab105134 and ab105135, Abcam) analyses. Serum and liver triglycerides were determined using triglyceride reagents (#T2449, #F6428, #G7793, Sigma Aldrich).
Aortic plaques analyses: Hearts with aortas attached were immersed in formalin and stored at 4 °C for 24 h following dissection, and transferred in to PBS thereafter. Aortas were sub-dissected under microscope and prepared for staining with Oil Red O. Images were captured using a light microscope. Plaque formation was quantified using ImageJ software, and results were expressed as % plaque area.
Statistical analyses: Data were reported as means±SEM and analyzed using one- or two-way ANOVA with Bonferroni post hoc tests, as appropriate. GraphPad Prism (V8, GraphPad Software, Inc., San Diego, California, USA) was used for statistical analyses. P-values <0.05 were considered significant.

For the substance Ac-PRPPKR-NH2 [MD20, Ac-PRPPKR-NH2], the fasted insulin levels result with db/db mice (15 mg/kg SC daily, about 6 weeks, vs control) is “significant decrease in insulin levels”. In the data set with db/db mice (30 mg/kg SC daily, about 6 weeks, vs control), the leptin levels entry is “significant decrease in leptin levels”. In the data set with db/db mice (5-hour-fasted, SC daily, vs vehicle), the basal glucose levels entry is recorded as “No significant differences”. The body weight gain entry with db/db mice (15, 30 or 45 mg/kg SC daily, significant overall interaction) is “inhibited body weight gain”. In addition, in the data set on db/db mice (SC daily, week 4, vs control, all doses), the “glucose clearance during GTT” value is “No significant differences in glucose clearance”. Besides, the “insulin tolerance test (ITT)” value with db/db mice (SC daily, week 6, 1 IU/kg insulin, vs control) is “did not detect any significant differences”. In addition, in the data set with LDLR−/− mice (vs control), the “% change in fat mass” value is listed as “a trend to ward a decreased % change in fat mass” and the aortic plaque area result is “No statistically significant differences”. Besides, in the data set on LDLR−/− mice (vs vehicle), the “% change in body weights” value is reported as “significant interaction”, the “body weights during the weeks of treatment” value was “significant interaction”, the fat mass content entry is “No statistically significant differences” and the lean mass result is on record as “No significant changes in lean mass”. The raw body weights entry in the data set with LDLR−/− mice (vs vehicle) is listed as “No statistically significant differences”. In the data set on LDLR−/− mice (2 mg/g glucose), the “glucose tolerance test (GTT)” value is “No statistically significant differences”. Also, the “insulin tolerance test (ITT)” value in the data set with LDLR−/− mice (0.6 mU/g insulin) was “not statistically significant, slight improvements could be seen”. Besides, in the data set with LDLR−/− mice (5 h-fasted), the hepatic triglycerides entry is recorded as “No statistically significant differences”, the “serum ALT” value is “No statistically significant differences”, the “serum AST” value is “No statistically significant differences” and the serum cholesterol result was “No statistically significant differences”. In the data set on LDLR−/− mice (5 h-fasted), the “serum free fatty acids” value is listed as “No statistically significant differences”, the serum insulin entry is listed as “No statistically significant differences”, the serum leptin result is “No statistically significant differences” and the serum triglycerides result was “No statistically significant differences”.
